In assay [1] the target is T1, SLC25A45-8xHis (Homo sapiens, UniProt Q8N413).
T1 construct: SLC25A45-Xa-8xHis, tag kept; in mitochondria isolated from FreeStyle 293-F cells
T1 sequence (Q8N413 1-288): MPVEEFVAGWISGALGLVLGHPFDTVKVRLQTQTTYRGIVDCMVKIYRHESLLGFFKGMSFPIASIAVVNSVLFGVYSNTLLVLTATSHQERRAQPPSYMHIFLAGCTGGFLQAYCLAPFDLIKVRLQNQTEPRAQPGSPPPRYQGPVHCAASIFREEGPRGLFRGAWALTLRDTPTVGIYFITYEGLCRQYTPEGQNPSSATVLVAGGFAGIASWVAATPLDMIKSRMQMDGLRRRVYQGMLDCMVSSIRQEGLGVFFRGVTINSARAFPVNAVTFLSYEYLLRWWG
Briefly: uptake by isolated mitochondria, LC-MS. The format is biochemical. The following applies: 10 μM; pH 7.25, room temperature; labelled compound.

For another assay, the target named is T2, purified human SLC25A45 (Homo sapiens, UniProt Q8N413).
T2 construct: codon-optimised; N-terminal extension GKPRTSPK (residues 14-21 of human oxoglutarate carrier), eight-His tag and Factor Xa site, Factor Xa cleaved; from S. cerevisiae BJ2168 mitochondria; 33,118 Da; in lauryl maltose neopentyl glycol / tetraoleoyl cardiolipin
T2 sequence (Q8N413 1-288): T1 sequence (Q8N413 1-288)
The experiment in a line: nanoDSF thermostability shift. It is filed as binding. The following applies: 10 mM compound, 20 mM HEPES pH 7.0, 50 mM NaCl, cardiolipin/LMNG, 25-95 °C at 4 °C per min.

The target of assay [2] is T1, SLC25A45-8xHis. The experiment in a line: competition of [2H9]-TML uptake by isolated mitochondria, LC-MS. The following applies: 10 mM unlabelled TML against 10 μM [2H9]-TML, 10 min, pH 7.25, room temperature. It is filed as biochemical.

For the molecule `CN=C(NC)NCCC[C@H](N)C(=O)O` [[^2H6]-SDMA], at SLC25A45-8xHis [1], the “uptake by isolated mitochondria, LC-MS” value is on record as “SLC25A45 was also required for the mitochondrial uptake of the deuterium-labeled dimethylarginine isomers”.

Turning to dimethylarginine, the ΔTm at purified human SLC25A45 (isomer not told) worked out at 7.5 °C.

On to `C[N+](C)(C)CCCC[C@H](N)C(=O)O` [trimethyllysine], for which the shift in melting temperature (ΔTm) at purified human SLC25A45 is 3.4 °C. For the same molecule, the “competition of [2H9]-TML uptake by isolated mitochondria, LC-MS” value on SLC25A45-8xHis [2] is “mitochondrial import of [^2H9]-TML was abolished by co-incubation with excess unlabeled trimethyllysine”.

Turning to `CN(C)C(=N)NCCC[C@H](N)C(=O)O` [[^2H6]-ADMA], on SLC25A45-8xHis [1], the “uptake by isolated mitochondria, LC-MS” value is “SLC25A45 was also required for the mitochondrial uptake of the deuterium-labeled dimethylarginine isomers”.

Broadly, the ΔTm is the change in melting temperature against a reference sample.

(Values after PMC12594208, “SLC25A45 is required for mitochondrial uptake of methylated amino acids and de novo carnitine biosynthesis” (Molecular Cell, 2025).)
